Key:
washed human platelets = assay: U46619-induced platelet aggregation; type: cell-based; conditions: Platelet; washed human platelets, U46619 (1 μM)
Method in brief: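 Washed platelets from ACD-anticoagulated blood of healthy donors, stirred at 1200 rpm, 37 °C in a turbidimetric aggregometer. Aggregation triggered by U46619 or collagen, scored as maximal rise in light transmission.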

ERp72 (PDIA4) = molecular target: T1, ERp72 (PDIA4) (Homo sapiens, UniProt P13667); assay: ERp72 reductase assay (Di-E-GSSG); type: biochemical; conditions: human recombinant
T1 sequence (P13667 21-645): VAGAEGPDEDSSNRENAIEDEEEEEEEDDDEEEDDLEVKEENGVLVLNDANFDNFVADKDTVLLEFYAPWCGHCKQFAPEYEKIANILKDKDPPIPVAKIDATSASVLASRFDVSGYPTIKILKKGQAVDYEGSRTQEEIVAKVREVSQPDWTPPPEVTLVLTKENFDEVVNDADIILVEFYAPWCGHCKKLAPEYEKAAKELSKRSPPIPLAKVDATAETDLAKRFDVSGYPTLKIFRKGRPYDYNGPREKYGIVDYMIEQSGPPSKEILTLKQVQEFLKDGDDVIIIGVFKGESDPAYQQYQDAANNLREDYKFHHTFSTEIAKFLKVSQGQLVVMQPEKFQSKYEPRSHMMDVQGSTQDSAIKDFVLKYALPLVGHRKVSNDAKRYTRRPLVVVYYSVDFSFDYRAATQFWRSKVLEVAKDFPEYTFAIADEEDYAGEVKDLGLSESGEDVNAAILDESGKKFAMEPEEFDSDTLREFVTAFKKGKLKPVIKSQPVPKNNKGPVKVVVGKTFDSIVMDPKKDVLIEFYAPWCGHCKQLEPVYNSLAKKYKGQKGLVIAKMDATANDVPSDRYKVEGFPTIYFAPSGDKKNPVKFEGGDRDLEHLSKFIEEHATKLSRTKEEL
Source text: In addition to PDI, ERp57 (PDIA3) and ERp72 (PDIA4) are two other major members of the PDI family in both platelets and A549 cells.[62],[63]

[1] = Parallel artificial membrane permeability assay (PAMPA); conditions: 50 μM, 25 ℃, 3 h, verapamil = 100%, ranitidine = 0%
Method in brief: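 Donor wells held 50 μM compound (DMSO <1% v/v, diluted from 10 mM stocks) in buffer; filter membrane coated with 2% w/v DOPC in n-dodecane. Sandwich incubated 3 h at 25 ℃, then donor and acceptor drug amounts quantified by UV spectra (220–400 nm) against reference standards.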

platelet surface PDI = platelet surface PDI (Homo sapiens, UniProt P07237); assay: Cell surface PDI reductase activity on intact human platelets (Di-E-GSSG assay)
Chain of platelet surface PDI (P07237 18-508): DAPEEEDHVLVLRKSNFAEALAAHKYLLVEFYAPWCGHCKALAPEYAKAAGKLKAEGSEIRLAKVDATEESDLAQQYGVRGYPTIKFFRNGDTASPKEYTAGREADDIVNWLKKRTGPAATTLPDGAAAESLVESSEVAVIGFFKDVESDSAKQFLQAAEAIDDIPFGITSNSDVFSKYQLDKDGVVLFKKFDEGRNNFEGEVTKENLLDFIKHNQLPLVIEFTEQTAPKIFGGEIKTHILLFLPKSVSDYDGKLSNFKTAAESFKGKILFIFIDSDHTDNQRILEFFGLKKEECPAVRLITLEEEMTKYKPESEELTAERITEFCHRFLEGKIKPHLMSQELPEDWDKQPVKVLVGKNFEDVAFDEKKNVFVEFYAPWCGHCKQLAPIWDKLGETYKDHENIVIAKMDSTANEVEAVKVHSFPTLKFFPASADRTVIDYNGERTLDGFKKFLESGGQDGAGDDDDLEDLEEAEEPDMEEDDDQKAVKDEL
Experimental: In this assay, a nonfluorescent substrate, dieosin glutathione disulfide (Di-E-GSSG), was reduced into a fluorescent product eosin-glutathione (E-GSH) by platelet surface PDI in the presence of 5 μM dithiothreitol (DTT).

## CC(=O)OC1O[C@H](CSC2=CC(=O)c3cccc(O)c3C2=O)[C@@H](OC(C)=O)C(OC(C)=O)[C@H]1OC(C)=O (stereo in doubt) [Compound 18, 2-(1,2,3,4-Tetra-O-acetyl-6-deoxy-6-thio-α-D-glucopyranose)-8-hydroxynaphthalene-1,4-dione]
Washed human platelets
  IC50: 950 ± 100 nM
ERp72 (PDIA4)
  IC50: 13700 ± 660 nM
[1]
  Permeability (%): 10.64%
Platelet surface PDI
  IC50: 420 ± 70 nM
